Laboratory results reported in the NIST ThermoML archive (doi:10.1016/j.tca.2015.06.017).

Experiment: xn = mol fraction of the nth substance listed
Settings: Liquid, Vibrating tube method

CC(C)CCl [1-chloro-2-methylpropane] + CCCCCCC
mass density [kg/m3]
Settings	293.15 K	298.15 K
100 kPa, x2 = 0.0531	–	857.37
100 kPa, x2 = 0.1023	–	844.58
100 kPa, x2 = 0.2009	–	820.42
100 kPa, x2 = 0.3009	–	797.89
100 kPa, x2 = 0.3981	–	777.63
100 kPa, x2 = 0.4986	–	758.2
100 kPa, x2 = 0.5998	–	740.04
100 kPa, x2 = 0.7038	–	722.73
100 kPa, x2 = 0.7993	–	707.93
100 kPa, x2 = 0.8995	–	693.43
100 kPa, x2 = 0.9507	–	686.38
2000 kPa, x2 = 0.0531	–	859.45
2000 kPa, x2 = 0.1023	–	846.69
2000 kPa, x2 = 0.2009	–	822.61
2000 kPa, x2 = 0.3009	–	800.07
2000 kPa, x2 = 0.3981	–	779.77
2000 kPa, x2 = 0.4986	–	760.3
2000 kPa, x2 = 0.5998	–	742.16
2000 kPa, x2 = 0.7038	–	724.79
2000 kPa, x2 = 0.7993	–	709.96
2000 kPa, x2 = 0.8995	–	695.5
2000 kPa, x2 = 0.9507	–	688.51
5000 kPa, x2 = 0.0531	–	862.78
5000 kPa, x2 = 0.1023	–	849.99
5000 kPa, x2 = 0.2009	–	825.85
5000 kPa, x2 = 0.3009	–	803.24
5000 kPa, x2 = 0.3981	–	782.87
5000 kPa, x2 = 0.4986	–	763.35
5000 kPa, x2 = 0.5998	–	745.14
5000 kPa, x2 = 0.7038	–	727.73
5000 kPa, x2 = 0.7993	–	712.83
5000 kPa, x2 = 0.8995	–	698.32
5000 kPa, x2 = 0.9507	–	691.31
7000 kPa, x2 = 0.0531	–	864.94
7000 kPa, x2 = 0.1023	–	852.13
7000 kPa, x2 = 0.2009	–	827.95
7000 kPa, x2 = 0.3009	–	805.31
7000 kPa, x2 = 0.3981	–	784.94
7000 kPa, x2 = 0.4986	–	765.38
7000 kPa, x2 = 0.5998	–	747.13
7000 kPa, x2 = 0.7038	–	729.69
7000 kPa, x2 = 0.7993	–	714.76
7000 kPa, x2 = 0.8995	–	700.23
7000 kPa, x2 = 0.9507	–	693.2
10000 kPa, x2 = 0.0531	–	868.11
10000 kPa, x2 = 0.1023	–	855.26
10000 kPa, x2 = 0.2009	–	831
10000 kPa, x2 = 0.3009	–	808.29
10000 kPa, x2 = 0.3981	–	787.84
10000 kPa, x2 = 0.4986	–	768.21
10000 kPa, x2 = 0.5998	–	749.91
10000 kPa, x2 = 0.7038	–	732.42
10000 kPa, x2 = 0.7993	–	717.45
10000 kPa, x2 = 0.8995	–	702.88
10000 kPa, x2 = 0.9507	–	695.78
20000 kPa, x2 = 0.0531	–	877.88
20000 kPa, x2 = 0.1023	–	865.08
20000 kPa, x2 = 0.2009	–	840.5
20000 kPa, x2 = 0.3009	–	817.71
20000 kPa, x2 = 0.3981	–	797.11
20000 kPa, x2 = 0.4986	781.73	777.37
20000 kPa, x2 = 0.5998	763.14	758.88
20000 kPa, x2 = 0.7038	745.41	741.28
20000 kPa, x2 = 0.7993	730.25	726.13
20000 kPa, x2 = 0.8995	715.39	711.41
20000 kPa, x2 = 0.9507	708.22	704.25
30000 kPa, x2 = 0.0531	891.52	886.78
30000 kPa, x2 = 0.1023	878.34	873.9
30000 kPa, x2 = 0.2009	853.68	849.18
30000 kPa, x2 = 0.3009	830.55	826.21
30000 kPa, x2 = 0.3981	809.73	805.55
30000 kPa, x2 = 0.4986	789.74	785.57
30000 kPa, x2 = 0.5998	771.06	766.94
30000 kPa, x2 = 0.7038	753.18	749.15
30000 kPa, x2 = 0.7993	737.88	733.94
30000 kPa, x2 = 0.8995	722.93	719.07
30000 kPa, x2 = 0.9507	715.7	711.84
40000 kPa, x2 = 0.0531	899.47	895.02
40000 kPa, x2 = 0.1023	886.28	882.04
40000 kPa, x2 = 0.2009	861.43	857.18
40000 kPa, x2 = 0.3009	838.11	834.09
40000 kPa, x2 = 0.3981	817.16	813.22
40000 kPa, x2 = 0.4986	797.04	793.13
40000 kPa, x2 = 0.5998	778.18	774.36
40000 kPa, x2 = 0.7038	760.15	756.46
40000 kPa, x2 = 0.7993	744.84	741.11
40000 kPa, x2 = 0.8995	729.76	726.12
40000 kPa, x2 = 0.9507	722.48	718.83
50000 kPa, x2 = 0.0531	906.83	902.53
50000 kPa, x2 = 0.1023	893.73	889.53
50000 kPa, x2 = 0.2009	868.58	864.58
50000 kPa, x2 = 0.3009	845.22	841.36
50000 kPa, x2 = 0.3981	824.17	820.34
50000 kPa, x2 = 0.4986	803.9	800.16
50000 kPa, x2 = 0.5998	784.93	781.27
50000 kPa, x2 = 0.7038	766.85	763.24
50000 kPa, x2 = 0.7993	751.39	747.78
50000 kPa, x2 = 0.8995	736.21	732.67
50000 kPa, x2 = 0.9507	728.86	725.32
60000 kPa, x2 = 0.0531	913.81	909.64
60000 kPa, x2 = 0.1023	900.5	896.54
60000 kPa, x2 = 0.2009	875.39	871.48
60000 kPa, x2 = 0.3009	851.83	848.21
60000 kPa, x2 = 0.3981	830.75	827.13
60000 kPa, x2 = 0.4986	810.36	806.82
60000 kPa, x2 = 0.5998	791.29	787.83
60000 kPa, x2 = 0.7038	773.13	769.72
60000 kPa, x2 = 0.7993	757.58	754.16
60000 kPa, x2 = 0.8995	742.31	738.97
60000 kPa, x2 = 0.9507	734.9	731.55
65000 kPa, x2 = 0.0531	917.1	913.06
65000 kPa, x2 = 0.1023	903.79	899.93
65000 kPa, x2 = 0.2009	878.75	874.82
65000 kPa, x2 = 0.3009	855.14	851.5
65000 kPa, x2 = 0.3981	833.84	830.36
65000 kPa, x2 = 0.4986	813.47	810
65000 kPa, x2 = 0.5998	794.31	790.97
65000 kPa, x2 = 0.7038	775.99	772.79
65000 kPa, x2 = 0.7993	760.39	757.19
65000 kPa, x2 = 0.8995	745.06	741.93
65000 kPa, x2 = 0.9507	737.63	734.52
